For experiment [1], the system named is calcitonin receptor (CTR). Description: cAMP accumulation (radioimmunoassay) in PC-3 CTRwt and PC-3 CTRΔESS cells. Format: cell-based, human. Conditions: 3 min. As for the experimental part:
PC-3CTRwt and PC-3CTRΔESS cells were treated with/without 50 nM CT for three min, washed and harvested in lysis buffer (50 mM Tris, pH 7.5, containing 5 mM EDTA, 50 mM NaF, 1 mM sodium pyrophosphate, 0.5 mM EGTA, 10 mM β-mercaptoethanol, leupeptin, 1 μg/ml; and aprotinin, 1 μg/ml). The lysates were analyzed for cAMP levels by radioimmunoassay (Perkin Elmer, Shelton, Conn.).
FIG. 1C depicts photomicrographs showing CTRwt and CTRΔESS (a mutant) localized to the plasma membrane (at 400×) in PC-3 cells. To examine the ability of CTRwt and CTRΔESS to activate its G protein-coupled effectors, the effect of 50 nM CT was examined on cAMP accumulation and PKA and PKC activity. […] FIG. 1D depicts the effect of 50 nM CT on cAMP accumulation in PC-3 CTRwt and PC-3 CTRΔESS cells stimulated with or without 50 nM CT for 3 min. The cells were lysed, and the lysates were analyzed for cAMP levels by radioimmunoassay (*p<0.01 (paired t-test)).
The effect of CT on cAMP was further tested in a dose-response study where the response to CT at multiple doses (between 0-100 nM) was examined. FIG. 1G depicts cAMP accumulation in PC-3 CTR and PC-3 CTRΔESS cells in response to CT at multiple doses (between 0-100 nM) stimulated for 3 min (*p<0.01 (One-way ANOVA and Newman-Keuls test)).

In experiment [2] the test system is PC-3M cells expressing ZO-1-wt or its ΔPDZ mutants. Description: Transepithelial electric resistance (TER). It is filed as cell-based. As to conditions: CT 50 nM. As for the experimental part: Cells were plated on Transwell filters (0.4 μm pore size) and grown to confluency in complete medium (RPMI1640 containing 10% fetal bovine serum, 20 mM HEPES and antibiotics). TER of the cultures (in duplicate wells) was measured at several time intervals with EVOM volt-ohm meter as previously described (Shah et al, 2009). The readings were corrected for blank (TER values from the filter in bathing medium). The integrity and cell density of monolayers were carefully monitored.
Since ZO-1 contains three PDZ domains, which of these interacts with CTR-C PDZ-binding motif was analyzed. PC-3M cells was used for this study because they are PC-3-derived, but co-express both CT and CTR, and are suitable to examine modulation of CTR action in response to mutations in ZO-1 (Chien et al., 2001). To knock down endogenous ZO-1 expression, PC-3M cells were stably transfected with constitutive ZO-1 shRNA expression vector (pSuper.neo system; shRNA duplex-5′-GACGAGAUAAUCCUCAUUUtt-3′ (SEQ ID NO:8) corresponding to 596-614 bp of ZO-1 mRNA). Since the constitutive presence of ZO-1 siRNA in PC-3M cells could interfere with the re-expression of ZO-1 wt or its ΔPDZ mutants, ZO-1 (wt or ΔPDZ mutants) cDNA expression vectors refractory to ZO-1 RNAi were generated by introducing a silent mutation in RNAi target sequence in the ZO-1 transgene. […]

Experiment [3] relates to PC-3CTRΔESS cells. Kind of experiment: Matrigel in vitro invasion assay. It is filed as cell-based. Conditions: 50 nM CT, 48 h. As for the experimental part: Invasion experiments were conducted in Matrigel™ invasion chambers as previously described (Sabbisetti et al., 2005).
CT increases invasiveness, and even induces an invasive phenotype in non-invasive prostate cancer cells. The role of PDZ-binding motif in CT-stimulated invasion was examined. FIG. 2C depicts CTR-C PDZ-binding motif mutation and effects on cell invasion. PC-3V, PC-3 CTRwt and PC-3 CTRΔESS cells were added to upper insert of invasion chambers with or without 50 nM CT, and cells that passed through the Matrigel™ barrier were counted after 48 h. The results are expressed as mean number of invaded cells per 400× field ±SEM (n=6; *p<0.05 (PC-3V v PC-3CTR-wt); $ p<0.05 (PC-3CTR-wt v PC-3CTRΔESS); $$-p<0.05 (PC-3CTRwt+CT v PC-3CTRΔESS+CT) (one-way ANOVA and Newman-Keul's test)). Expression of CTRwt in PC-3 cells increased invasion by 2.5-fold (FIG. 2C).

Experiment [4] has as its system PC-3CTRwt cells. Description: Cell adhesion on culture dishes. It is filed as cell-based. Conditions: 50 nM CT, 1 hour. As for the experimental part:
Confluent cultures of PC-31-CTR cells were tested for cell adhesion after treatment with diluent (C), CT (50 nM), mPKI (myristoylated PKA inhibitory peptide (100 nM) or mPKI+CT. The number of adherent cells was determined by absorbance after 1 hour and are shown in the right graph.
To understand the significance of CT-induced, PKA-dependent disassembly of TJs in PC cell adhesion and invasion, the action of CT was examined on TER, PCP, cell adhesion and invasion in PC-3CTRwt cells in the presence/absence of mPKI. […] Similarly, mPKI abrogated the actions of CT on PCP and invasion (FIGS. 20B and 20C respectively). Next, the adhesion of PC-3CTRwt cells was examined on culture dishes.

Sequence of calcitonin receptor (CTR) (P30988 25-470 limits assumed): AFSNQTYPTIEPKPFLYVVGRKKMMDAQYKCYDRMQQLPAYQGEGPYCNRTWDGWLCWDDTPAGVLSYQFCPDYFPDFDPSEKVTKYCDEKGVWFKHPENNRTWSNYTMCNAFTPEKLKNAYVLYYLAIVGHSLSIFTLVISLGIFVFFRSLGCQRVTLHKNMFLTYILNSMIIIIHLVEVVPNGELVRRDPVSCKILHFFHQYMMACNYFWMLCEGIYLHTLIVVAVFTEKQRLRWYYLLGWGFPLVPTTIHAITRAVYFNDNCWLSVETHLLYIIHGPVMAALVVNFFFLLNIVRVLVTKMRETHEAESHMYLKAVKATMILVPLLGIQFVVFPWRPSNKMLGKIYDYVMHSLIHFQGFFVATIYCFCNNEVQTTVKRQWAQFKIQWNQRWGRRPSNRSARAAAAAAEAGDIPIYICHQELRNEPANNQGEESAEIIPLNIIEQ

With calcitonin [CT], the cAMP accumulation entry in experiment [1] (50 nM CT, PC-3 CTRwt and PC-3CTRΔESS cells) is on record as “stimulated cAMP production”. For the same substance, the “cAMP accumulation, dose-response” value in experiment [1] (CT 0-100 nM, CTRwt and CTRΔESS cells, all doses) is on record as “significantly increased”. The TER result in experiment [2] (cells expressing ZO-1-ΔPDZ3) is “no decrease in TER”; in experiment [2] (cells re-expressing ZO-1-wt, ΔPDZ1 or ΔPDZ2), “remarkable decline in TER”. Besides, the increase in invasion entry in experiment [3] is listed as “did not”. Moreover, in experiment [4], the “adhesion of the cells to plastic matrix” value is recorded as “remarkable decline”.

The record behind these values is patent publication US9765115B2, “Inhibitors of metastasis, methods of generating such inhibitors and their therapeutic applications” (Board of Supervisors of Louisiana State University acting …, priority 2011, dated 2017).
